In patent US20250057963A1, “DISCOVERY OF PIPERLONGUMINE AS A NOVEL E3 LIGASE LIGAND” (University of Florida Research Foundation, Incorporated, priority 2021, published 2025):
“Also recorded” adds a separate entry of the source.

How the values were obtained:
[1] = system: proteins in senescent WI38 cells; conditions: cited from earlier work
[2] = system: PL-binding proteins in MOLT4 cells; experiment: Competitive ABPP with PL-Alkyne probe and LC-MS/MS in MOLT4 cells; parameters: species or system Human
Description: Competitive ABPP. MOLT4 cells (2×10^7) were pre-treated with DMSO or 20 µM PL for 4 h and then treated with 1 μM PL-Alkyne probe (Zhang et al., 2018b) for an additional 4 h. The cells were then harvested and lysed in 1× Dulbecco's phosphate-buffered saline (PBS) buffer (Cat. #D1408, Sigma-Aldrich) containing protease and phosphatase inhibitors. CuAAC reaction was performed as previously described (Spradlin et al., 2019) and biotinylated proteins were enriched using Pierce™ streptavidin agarose beads (Cat. #20353, ThermoFisher).
Sample preparation and LC-MS/MS analysis. Protein samples were reduced, alkylated, and digested on-bead using filter-aided sample preparation (Wisniewski et al., 2009) with sequencing grade modified porcine trypsin (Cat. No. V5111, Promega). […]
The MS/MS was acquired according to standard conditions established in the lab. […] The scan sequence of the mass spectrometer was based on the original TopTen™ method; the analysis was programmed for a full scan recorded between 375-1575 Da at 60,000 resolution, and a MS/MS scan at resolution 15,000 to generate product ion spectra to determine amino acid sequence in consecutive instrument scans of the fifteen most abundant peaks in the spectrum. […]
Data processing and analysis. All MS/MS samples were analyzed using Sequest (Thermo Fisher Scientific, San Jose, CA, USA; version IseNode in Proteome Discoverer 2.4.0.305). […]

CDK9 = CDK9 (Homo sapiens, UniProt P50750); experiment: CDK9 degradation in MOLT4 cells (immunoblot); type: cell-based; parameters: endogenous in cells; host or cells: MOLT4, 293T, K562, NCI-H1299, LNCaP; conditions: immunoblot
Sequence of CDK9 (P50750 whole entry): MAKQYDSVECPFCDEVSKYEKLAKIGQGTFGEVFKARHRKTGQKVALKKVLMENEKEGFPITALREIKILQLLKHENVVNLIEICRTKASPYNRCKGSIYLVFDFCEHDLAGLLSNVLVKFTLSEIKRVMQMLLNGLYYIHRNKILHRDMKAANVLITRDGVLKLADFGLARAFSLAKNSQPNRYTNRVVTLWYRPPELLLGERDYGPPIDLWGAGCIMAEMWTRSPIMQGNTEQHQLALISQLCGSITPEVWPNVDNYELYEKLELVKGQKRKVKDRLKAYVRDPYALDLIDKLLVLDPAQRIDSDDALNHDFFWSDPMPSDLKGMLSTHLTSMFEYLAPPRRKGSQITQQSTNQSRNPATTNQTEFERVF
Description: All the cell lines were maintained in a humidified incubator at 37° C. and 5% CO2.
Data analysis was performed using GraphPad Prism software (version 9) unless indicated otherwise. All graphs presented represent the mean±standard deviation of the mean (SD) unless otherwise stated.

[3] = target: T1, CDK9: 955: KEAP1 ternary complex (Homo sapiens, UniProt P50750+Q14145); experiment: NanoBRET ternary complex formation assay in live 293T cells; type: cell-based; conditions: HiBit-CDK9 and Halo-KEAP1 in 293T cells, 6 h
T1 construct: expressed in transfected cells; host or cells: 293T
T1 sequence (P50750 whole entry): as above
T1 sequence (Q14145 whole entry): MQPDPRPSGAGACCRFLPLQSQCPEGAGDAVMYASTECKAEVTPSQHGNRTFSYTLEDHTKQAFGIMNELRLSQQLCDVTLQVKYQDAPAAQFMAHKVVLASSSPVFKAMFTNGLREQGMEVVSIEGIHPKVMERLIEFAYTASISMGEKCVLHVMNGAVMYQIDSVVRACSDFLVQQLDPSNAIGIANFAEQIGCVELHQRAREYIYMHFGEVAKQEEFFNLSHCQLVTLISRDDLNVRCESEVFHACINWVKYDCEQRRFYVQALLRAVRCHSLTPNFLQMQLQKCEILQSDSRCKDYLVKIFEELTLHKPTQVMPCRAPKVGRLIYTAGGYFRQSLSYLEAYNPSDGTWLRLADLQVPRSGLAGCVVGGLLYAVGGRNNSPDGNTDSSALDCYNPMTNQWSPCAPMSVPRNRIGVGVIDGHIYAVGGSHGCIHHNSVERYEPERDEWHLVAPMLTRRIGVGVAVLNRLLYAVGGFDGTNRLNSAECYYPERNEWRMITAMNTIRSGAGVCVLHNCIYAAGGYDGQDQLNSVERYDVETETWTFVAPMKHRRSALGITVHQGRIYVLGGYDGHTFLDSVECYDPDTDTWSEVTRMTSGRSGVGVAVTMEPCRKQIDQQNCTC
Excerpt: CMV HiBit (Cat. No. CS1956B03) was purchased from Promega. Plasmid HaloTag-KEAP1 (a gift from Yimon Aye, plasmid #58240) was purchased from Addgene. HiBit-CDK9 were constructed through the Gibson assembly method. The primer pair (5′-[…]atggcaaagcagtacgactcggtggag-3′ and 5′-[…]gaagacgcgctcaaactccgtctggt-3′) and the template HA-CDK9 (a gift from Andrew Rice, plasmid #28102) was used to clone the CDK9 fragment. The primer pair (5′-accagacggagtttgagcgcgtcttc[…]-3′ and 5′-ctccaccgagtcgtactgcttcgccat[…]-3′) and pBit3.1—N(Cat. No. N2361, Promega) were used to clone the vector-containing fragment. The PCR fragments were assembled using NEBuilder® HiFi DNAAssembly Master Mix. DNA sequences in all these plasmids were authenticated by automatic sequencing. […] After treatment, NanoBRET Nano-Glo Substrate (Cat. No. N1662, Promega) was added into the medium, and the contents were mixed by shaking the plate for 30 s before measuring donor and acceptor signals on Biotek plate reader. Dual-filtered luminescence was collected with a 450/50 nm bandpass filter (donor, NanoBiT-CDK9 protein) and a 610-nm longpass filter (acceptor, HaloTag NanoBRET ligand) using an integration time of 0.5 s. mBRET ratios were calculated following the NanoBRET™ Nano-Glo® Detection System (Cat. No. N1662, Promega).

[4] = system: LNCaP prostate cancer cells and H1299 lung cancer cells; experiment: Cell killing (MTS) with or without KEAP1 siRNA knockdown; type: cell-based, Human; conditions: KEAP1 siRNA vs control siRNA 48 h; compound 0.1 mM (LNCaP) or 0.3 mM (H1299) for 24 h
Description: FIGS. 19A to 19B show percentages of cell killing in LNCaP (FIG. 19A) and H1299 (FIG. 19B) cells with or without KEAP1 knockdown. LNCaP and H1299 cells were treated with control siRNA or siRNAs targeting KEAP1 for 48 h and then reseeded and treated with indicated compound (0.1 mM for LNCaP cells and 0.3 mM for H1299 cells) for 24 h. The cell viability was then determined by MTS assay. The data are presented as mean±SD from three replicate cell cultures in a representative experiment. Data are representative of two independent experiments. Statistical significance was calculated with unpaired two-tailed Student's t-tests. **P<0.01; ***P<0.001; NS: not significant.
Viability (MTS) assays in various cancer cells followed the methods described in our previous report (Khan et al., 2019). The data were expressed as average % cell viability and fitted in non-linear regression curves using GraphPad Prism 9 (GraphPad Software, La Jolla, CA, USA).

EML4-ALK = target: T2, EML4-ALK (Homo sapiens, UniProt Q9UM73); experiment: EML4-ALK degradation in NCI-H2228 cells (immunoblot); type: cell-based
T2 construct: endogenous in cells; host or cells: NCI-H2228; the other entry of the earlier key: EML4 (Q9HC35, Echinoderm microtubule-associated protein-like 4)
T2 sequence (Q9UM73 with tags, fused parts or gaps): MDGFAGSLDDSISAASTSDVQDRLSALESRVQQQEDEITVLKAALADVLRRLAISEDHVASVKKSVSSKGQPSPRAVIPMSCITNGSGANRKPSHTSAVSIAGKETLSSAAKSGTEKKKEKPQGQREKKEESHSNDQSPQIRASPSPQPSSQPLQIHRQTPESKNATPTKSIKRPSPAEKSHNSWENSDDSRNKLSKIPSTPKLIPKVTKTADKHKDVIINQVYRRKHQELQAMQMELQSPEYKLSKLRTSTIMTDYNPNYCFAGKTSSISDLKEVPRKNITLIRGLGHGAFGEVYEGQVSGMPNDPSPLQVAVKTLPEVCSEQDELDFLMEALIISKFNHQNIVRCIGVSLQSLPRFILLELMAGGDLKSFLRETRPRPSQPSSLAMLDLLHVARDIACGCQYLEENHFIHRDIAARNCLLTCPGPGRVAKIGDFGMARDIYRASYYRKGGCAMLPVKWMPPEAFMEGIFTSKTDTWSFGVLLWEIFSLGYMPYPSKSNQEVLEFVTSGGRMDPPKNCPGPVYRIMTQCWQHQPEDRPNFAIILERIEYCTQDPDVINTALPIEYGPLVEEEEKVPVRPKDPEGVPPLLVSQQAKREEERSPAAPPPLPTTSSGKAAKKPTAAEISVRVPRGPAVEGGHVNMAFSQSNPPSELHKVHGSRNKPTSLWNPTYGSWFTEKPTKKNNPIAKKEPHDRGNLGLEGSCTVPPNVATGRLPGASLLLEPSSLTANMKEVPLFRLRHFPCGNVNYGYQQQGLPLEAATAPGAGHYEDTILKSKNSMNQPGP
Description: Human T-ALL MOLT4 (Cat. No. CRL-1582), K562 (Cat. No. CCL-243), NCI-H1299 (Cat. No. CRL-5803), NCI-H2228 (Cat. No. CRL-5935), LNCaP (Cat. No. CRL-1740), 22RV1 (Cat. No. CRL-2505), PC3 (Cat. No. CRL-1435), DU145 (Cat. No. HTB-81), and epithelial kidney HEK 293T (293T, Cat. No. ACS-4500) cell lines were recently purchased from American Type Culture Collection (ATCC, Manassas, VA, USA). MOLT4, K562, NCI—H-1299, NCI-H2228, LNCap, and 22RV 1 cell lines were cultured in RPMI 1640 medium (Cat No. 22400-089, Thermo Fisher Scientific, Waltham, MA, USA) supplemented with 10% (v/v) heat-inactivated fetal bovine serum (FBS, Cat. No. S11150H, Atlanta Biologicals, Flowery Branch, GA, USA), 100 U/mL penicillin and 100 pig/mL streptomycin (Pen-Strep, Cat. No. 15140122, Thermo Fisher Scientific). PC3 cells were cultured in complete F—12K medium (Kaighn's modification of Ham's F-12 medium, Cat. No. 30-2004, ATCC) supplemented with 10% (v/v) heat-inactivated FBS, 100 U/mL penicillin, and 100 μg/mL streptomycin. DU145 cells were cultured in complete Eagle's Minimum Essential Medium (EMEM, Cat. No. 30-2003, ATCC) supplemented with 10% (v/v) heat-inactivated FBS, 100 U/mL penicillin, and 100 μg/mL streptomycin. […]
Immunoblot data were quantified using the ImageJ (v 1.53a) software from NIH. […]

formation of the CDK9:KEAP1 ternary complex [3]	819-induced EML4-ALK degradation after pre-treatment with MG132, MLN4924 or DMF (EML4-ALK)	Compound	number of PL-binding proteins ([1]; senescent WI38 fibroblasts, previous study)	number of PL-binding E3 ligases ([1]; senescent cells, previous study (Zhang et al., 2018b))	number of PL-binding E3 ligases [2]	number of PL-binding proteins [2]	CDK9 degradation (CDK9)	effect of KEAP1 knockdown on cytotoxicity of the compound [4]	EML4-ALK degradation (EML4-ALK; immunoblot)
–	–	COc1cc(/C=C/C(=O)N2CCC=CC2=O)cc(OC)c1OC [PL, Piperlongumine]	172	8	9	about 300	only 955, degraded CDK9; also recorded: none of these treatments degraded CDK9	–	–
did not; also recorded: negligible	–	COc1cc(CCC(=O)N2CCCCC2=O)cc(OC)c1OCCN1CCN(C(=O)CN2CCC(C(=O)Nc3ncc(SCc4ncc(C(C)(C)C)o4)s3)CC2)CC1 [compound 336, N-(5-(((5-(tert-butyl)oxazol-2-yl)methyl)thio)thiazol-2-yl)-1-(2-(4-(2-(2,6-dimethoxy-4-(3-oxo-3-(2-oxopiperidin-1-yl)propyl)phenoxy)ethyl)piperazin-1-yl)-2-oxoethyl)piperidine-4-carboxamide]	–	–	–	–	could not induce CDK9 degradation; also recorded: but not 336, can induce CDK9 degradation; also recorded: cannot degrade CDK9	no significant effect	–
–	can be blocked	COc1cc(/C=C/C(=O)N2CCC=CC2=O)cc(OC)c1OCC(=O)N1CCC(c2cc(OC(C)C)c(Nc3ncc(Cl)c(Nc4ccccc4S(=O)(=O)C(C)C)n3)cc2C)CC1 [compound 819, (E)-1-(3-(4-(2-(4-(4-((5-chloro-4-((2-(isopropylsulfonyl)phenyl)amino)pyrimidin-2-yl)amino)-5-isopropoxy-2-methylphenyl)piperidin-1-yl)-2-oxoethoxy)-3,5-dimethoxyphenyl)acryloyl)-5,6-dihydropyridin-2(1H)-one]	–	–	–	–	–	–	concentration-dependent manner; also recorded: degrades EML4-ALK
